According to the NIST ThermoML archive (doi:10.1016/j.jct.2015.01.006):
± gives the expanded uncertainty stated by the source.

Experiment: mn = molality of the nth substance listed, in mol/kg
Conditions: 298.15 K, 100 kPa, Liquid, Vibrating tube method

[O]=[Re](=[O])(=[O])[OH] [perrhenic acid] + O
Conditions	mass density [kg/m3]
m1 = 0.15	1027.57 ± 4.1
m1 = 0.31	1057.54 ± 4.2
m1 = 0.46	1087.27 ± 4.4
m1 = 0.6	1115.28 ± 4.5
m1 = 0.75	1143.92 ± 4.6
m1 = 0.89	1169.78 ± 4.7
m1 = 1.03	1195.77 ± 4.8
m1 = 1.17	1220.36 ± 4.9
m1 = 1.31	1245.59 ± 5
m1 = 1.45	1270.29 ± 5.1
m1 = 1.58	1292.96 ± 5.2
m1 = 1.71	1316 ± 5.3
m1 = 1.93	1361.24 ± 5.5
m1 = 2.38	1429.34 ± 5.8
m1 = 3.33	1584.96 ± 6.5
m1 = 3.78	1649.71 ± 6.8
m1 = 4.08	1693.28 ± 6.9
m1 = 4.29	1716.22 ± 7
m1 = 4.63	1782.41 ± 7.3
m1 = 4.72	1791.73 ± 7.4
m1 = 4.96	1821.44 ± 7.5
m1 = 5.23	1856.73 ± 7.7
m1 = 5.45	1877.16 ± 7.8
m1 = 5.66	1910.98 ± 8
m1 = 5.92	1933.4 ± 8.1
m1 = 6.06	1957.44 ± 8.2
m1 = 6.26	1978.54 ± 8.3
m1 = 6.5	2025.89 ± 8.5
m1 = 6.8	2054.75 ± 8.7
m1 = 7.05	2069.04 ± 8.7
m1 = 7.13	2085.82 ± 8.8
m1 = 7.42	2107.74 ± 8.9
m1 = 7.44	2117.26 ± 9
m1 = 7.65	2134.62 ± 9.1
m1 = 7.86	2153.7 ± 9.2
m1 = 7.95	2166.62 ± 9.3
m1 = 8.2	2192.45 ± 9.4
m1 = 11.82	2516.75 ± 11
